Measurements as given in the supplement of paper PMC10307832.

Key:
Test in all cases: relative viability (nuclei count vs DMSO), 5 days (fraction); higher = more cells survive
COR-L 105 = test system: COR-L 105
Outline: (§1)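 Relative viability divides the nuclei count in treated wells by that in vehicle wells. Lung cancer cell lines were seeded in 1536-well plates, dosed by pin tool the next day, and fixed and stained after 5 days in one step with final 0.05% Triton X-100, 1% formaldehyde and 1 ug/ml Hoechst. Dosing was a single drug or a fixed anchor-drug dose plus five library-drug doses (not always all listed) in √10 steps, and values are medians of duplicate plates imaged at 4×.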

COR-L23 = test system: COR-L23
Outline: as §1

HARA = test system: HARA
Outline: as §1

HCC-15 = test system: HCC-15
Outline: as §1

HOP-62 = test system: HOP-62
Outline: as §1

NCI-H1355 = test system: NCI-H1355
Outline: as §1

NCI-H1395 = test system: NCI-H1395
Outline: as §1

NCI-H1734 = test system: NCI-H1734
Outline: as §1

NCI-H1755 = test system: NCI-H1755
Outline: as §1

NCI-H1792 = test system: NCI-H1792
Outline: as §1

NCI-H1793 = test system: NCI-H1793
Outline: as §1

NCI-H1993 = test system: NCI-H1993
Outline: as §1

NCI-H2009 = test system: NCI-H2009
Outline: as §1

NCI-H2170 = test system: NCI-H2170
Outline: as §1

NCI-H2228 = test system: NCI-H2228
Outline: as §1

NCI-H2347 = test system: NCI-H2347
Outline: as §1

NCI-H358 = test system: NCI-H358
Outline: as §1

NCI-H647 = test system: NCI-H647
Outline: as §1

NCI-H838 = test system: NCI-H838
Outline: as §1

SK-MES-1 = test system: SK-MES-1
Outline: as §1

UMC-11 = test system: UMC-11
Outline: as §1

CCN(CC)CCCCNc1ncc2cc(-c3cc(OC)cc(OC)c3)c(NC(=O)NC(C)(C)C)nc2n1 + Cc1nc(NC(=O)N2CCC[C@H]2C(N)=O)sc1-c1ccnc(C(C)(C)C(F)(F)F)c1 [Alpelisib] (partner 2 µM)
relative viability (COR-L 105; first compound 0.01 µM): 1
relative viability (COR-L 105; first compound 0.03162 µM): 0.981
relative viability (COR-L 105; first compound 0.1 µM): 1.06
relative viability (COR-L 105; first compound 0.3162 µM): 1.01
relative viability (COR-L 105; first compound 1 µM): 0.917
relative viability (COR-L23; first compound 0.01 µM): 0.819
relative viability (COR-L23; first compound 0.03162 µM): 1.02
relative viability (COR-L23; first compound 0.1 µM): 1.19
relative viability (COR-L23; first compound 0.3162 µM): 0.787
relative viability (COR-L23; first compound 1 µM): 0.856
relative viability (HARA; first compound 0.01 µM): 1.06
relative viability (HARA; first compound 0.03162 µM): 0.872
relative viability (HARA; first compound 0.1 µM): 1.03
relative viability (HARA; first compound 0.3162 µM): 0.801
relative viability (HARA; first compound 1 µM): 0.685
relative viability (HCC-15; first compound 0.01 µM): 1.03
relative viability (HCC-15; first compound 0.03162 µM): 0.885
relative viability (HCC-15; first compound 0.1 µM): 0.947
relative viability (HCC-15; first compound 0.3162 µM): 0.966
relative viability (HCC-15; first compound 1 µM): 0.868
relative viability (HOP-62; first compound 0.01 µM): 0.82
relative viability (HOP-62; first compound 0.03162 µM): 1.1
relative viability (HOP-62; first compound 0.1 µM): 0.89
relative viability (HOP-62; first compound 0.3162 µM): 1.04
relative viability (HOP-62; first compound 1 µM): 0.726
relative viability (NCI-H1355; first compound 0.01 µM): 0.776
relative viability (NCI-H1355; first compound 0.03162 µM): 0.847
relative viability (NCI-H1355; first compound 0.1 µM): 0.894
relative viability (NCI-H1355; first compound 0.3162 µM): 0.839
relative viability (NCI-H1355; first compound 1 µM): 0.785
relative viability (NCI-H1395; first compound 0.03162 µM): 1.19
relative viability (NCI-H1395; first compound 0.1 µM): 1.07
relative viability (NCI-H1395; first compound 0.3162 µM): 0.802
relative viability (NCI-H1395; first compound 1 µM): 0.637
relative viability (NCI-H1734; first compound 0.01 µM): 0.728
relative viability (NCI-H1734; first compound 0.03162 µM): 0.69
relative viability (NCI-H1734; first compound 0.1 µM): 0.713
relative viability (NCI-H1734; first compound 0.3162 µM): 0.707
relative viability (NCI-H1734; first compound 1 µM): 0.708
relative viability (NCI-H1755; first compound 0.01 µM): 0.983
relative viability (NCI-H1755; first compound 0.03162 µM): 0.942
relative viability (NCI-H1755; first compound 0.1 µM): 0.983
relative viability (NCI-H1755; first compound 0.3162 µM): 1.06
relative viability (NCI-H1755; first compound 1 µM): 0.927
relative viability (NCI-H1792; first compound 0.01 µM): 0.797
relative viability (NCI-H1792; first compound 0.03162 µM): 0.674
relative viability (NCI-H1792; first compound 0.1 µM): 0.51
relative viability (NCI-H1792; first compound 0.3162 µM): 0.766
relative viability (NCI-H1792; first compound 1 µM): 0.563
relative viability (NCI-H1793; first compound 0.01 µM): 0.748
relative viability (NCI-H1793; first compound 0.1 µM): 0.958
relative viability (NCI-H1793; first compound 0.3162 µM): 0.716
relative viability (NCI-H1793; first compound 1 µM): 0.642
relative viability (NCI-H1993; first compound 0.01 µM): 0.635
relative viability (NCI-H1993; first compound 0.03162 µM): 0.707
relative viability (NCI-H1993; first compound 0.1 µM): 0.691
relative viability (NCI-H1993; first compound 0.3162 µM): 0.677
relative viability (NCI-H1993; first compound 1 µM): 0.672
relative viability (NCI-H2009; first compound 0.01 µM): 1.15
relative viability (NCI-H2009; first compound 0.03162 µM): 1.14
relative viability (NCI-H2009; first compound 0.1 µM): 1.24
relative viability (NCI-H2009; first compound 0.3162 µM): 1.18
relative viability (NCI-H2009; first compound 1 µM): 1.16
relative viability (NCI-H2170; first compound 0.01 µM): 0.92
relative viability (NCI-H2170; first compound 0.03162 µM): 0.822
relative viability (NCI-H2170; first compound 0.1 µM): 0.831
relative viability (NCI-H2170; first compound 0.3162 µM): 0.894
relative viability (NCI-H2170; first compound 1 µM): 0.807
relative viability (NCI-H2228; first compound 0.01 µM): 0.796
relative viability (NCI-H2228; first compound 0.03162 µM): 0.755
relative viability (NCI-H2228; first compound 0.1 µM): 0.913
relative viability (NCI-H2228; first compound 0.3162 µM): 0.672
relative viability (NCI-H2228; first compound 1 µM): 0.469
relative viability (NCI-H2347; first compound 0.01 µM): 1.08
relative viability (NCI-H2347; first compound 0.03162 µM): 1.09
relative viability (NCI-H2347; first compound 0.1 µM): 1.04
relative viability (NCI-H2347; first compound 0.3162 µM): 1.09
relative viability (NCI-H2347; first compound 1 µM): 1.11
relative viability (NCI-H358; first compound 0.01 µM): 1.06
relative viability (NCI-H358; first compound 0.03162 µM): 0.901
relative viability (NCI-H358; first compound 0.1 µM): 1.01
relative viability (NCI-H358; first compound 0.3162 µM): 0.848
relative viability (NCI-H358; first compound 1 µM): 0.725
relative viability (NCI-H647; first compound 0.01 µM): 1.41
relative viability (NCI-H647; first compound 0.03162 µM): 1.3
relative viability (NCI-H647; first compound 0.1 µM): 1.31
relative viability (NCI-H647; first compound 0.3162 µM): 1.13
relative viability (NCI-H647; first compound 1 µM): 0.465
relative viability (NCI-H838; first compound 0.01 µM): 1.11
relative viability (NCI-H838; first compound 0.03162 µM): 0.964
relative viability (NCI-H838; first compound 0.1 µM): 0.996
relative viability (NCI-H838; first compound 0.3162 µM): 1.04
relative viability (NCI-H838; first compound 1 µM): 0.602
relative viability (SK-MES-1; first compound 0.01 µM): 1.12
relative viability (SK-MES-1; first compound 0.03162 µM): 0.934
relative viability (SK-MES-1; first compound 0.1 µM): 0.877
relative viability (SK-MES-1; first compound 0.3162 µM): 1.03
relative viability (SK-MES-1; first compound 1 µM): 0.849
relative viability (UMC-11; first compound 0.01 µM): 1.08
relative viability (UMC-11; first compound 0.03162 µM): 0.921
relative viability (UMC-11; first compound 0.1 µM): 1.02
relative viability (UMC-11; first compound 0.3162 µM): 1.17
relative viability (UMC-11; first compound 1 µM): 0.88
